Reference: PubChem BioAssay AID1996
Values after ≈ are worked out from the molar mass of the structure shown.

details: buffer; pH 7.4; 200.0 µM

| solubility kinetic [µg/mL] | SMILES |
| --- | --- |
| > 46.6 | CCn1c(C)nnc1SCC(=O)Nc1ccccc1Cl |
| > 48.7 | CC1CC(C)CN(C(=O)CNC(=O)c2ccc3ccccc3c2)C1 (configuration not stated) |
| 19.3 (≈ 64.9 µM) | COc1ccc(OCC(=O)Nc2ccc3c(c2)CCC3)cc1 |
| 44.4 (≈ 139 µM) | COc1cccc(NC(=O)CN(C)C(C)C(=O)N2CCCC2)c1 (configuration not stated) |
| > 44.3 | O=C(O)/C=C/C(=O)Nc1ccc(C(=O)c2ccccc2)cc1 |
| > 40.5 | C#Cc1cccc(NC(=O)C2CCN(C(C)=O)CC2)c1 |
| > 41 | O=C(NCCC1CC1(Cl)Cl)Nc1ccccc1 (configuration not stated) |
| 1.6 (≈ 4.96 µM) | CCSc1nsc(NC(=O)Nc2cccc(C(C)=O)c2)n1 |
| 17.7 (≈ 59.7 µM) | Cc1cccc(NC(=O)c2ccc3[nH]c(=O)c(=O)[nH]c3c2)n1 |
| 11.9 (≈ 40.2 µM) | O=C(NCc1ccccn1)Nc1cc(Cl)ccc1Cl |
| > 43.7 | CCCC(=O)OCC(=O)Nc1ccc([N+](=O)[O-])cc1C#N |
| 2.6 (≈ 8.01 µM) | Cc1ccccc1NC(=O)CCCCC(=O)Nc1ccccc1C |
| 37.6 (≈ 137 µM) | O=C(CNC(=O)c1ccccc1Cl)c1ccccc1 |
| 1 (≈ 3.16 µM) | CCC(CC)C(=O)c1c[nH]c(C(=O)NCc2ccc(F)cc2)c1 |
| > 55.9 | CCOc1ccc(C(=O)N(CN2CCCC2=O)c2cccc(Cl)c2)cc1 |
| > 49.4 | CCOC(=O)CNC(=O)Cn1cnc2c(oc3ccccc32)c1=O |
| > 35 | CCOc1c(Nc2ccccc2O)c(=O)c1=O |
| 1.4 (≈ 4.69 µM) | O=C(Nc1ccc(OC(F)F)c(Cl)c1)c1ccccn1 |
| 0.9 (≈ 2.69 µM) | O=C(Nc1cccc(NC(=O)c2ccccc2F)c1)c1ccccc1 |
| 1.1 (≈ 3.43 µM) | NC(=O)c1ccc(NC(=O)COc2cccc3ccccc23)cc1 |
| > 38.7 | COc1ccc(OCC(=O)Nc2ccncc2)cc1 |
| > 47.9 | O=C(NC(=O)N1CCSCC1)c1c(Cl)cccc1Cl |

| solubility kinetic [µg/mL] | SMILES |
| --- | --- |
| 8.5 (≈ 18.7 µM) | CC(=O)c1cccc(NC(=O)c2cc(=O)[nH]c3ccc(S(=O)(=O)N4CCOCC4)cc23)c1 |
| > 50 | CC(C)(C)c1ccc(C(=O)NC(=O)CSc2n[nH]c(N)n2)cc1 |
| 9.7 (≈ 24.5 µM) | CCN(c1ccccc1)S(=O)(=O)c1cccc(C(=O)Nc2ccc(C)cn2)c1 |
| 42.4 (≈ 126 µM) | Cc1ccc(NC(=O)COC(=O)Cn2cnc3ccccc32)c(C)c1 |
| > 44.8 | COc1ccc(NC(=O)NC2(C)CCS(=O)(=O)C2)cc1 (configuration not stated) |
| > 47.6 | COc1ccc(CNC(=O)COc2cccnc2[N+](=O)[O-])cc1 |
| 31.8 (≈ 115 µM) | CCc1ccc(S(=O)(=O)NCc2cccnc2)cc1 |
| 2 (≈ 6.94 µM) | COc1ccc(C)cc1NC(=O)NCc1ccccc1F |
| 27.5 (≈ 109 µM) | O=C(Nc1ccccc1)Nc1ccc2ncoc2c1 |
| > 46.9 | CCNC(=O)COC(=O)CCNC(=O)c1ccc(Cl)cc1 |
| 6.3 (≈ 17.2 µM) | COc1ccc(C(=O)NCCSCc2cccc(Cl)c2)cc1OC |
| 10.6 | Cl.NC(=NCCc1ccccc1)NC(=O)c1cc(Cl)ccc1O |
| > 39.6 | O=C(NCc1cccnc1)c1cnc2ccccc2n1 |
| 15.7 (≈ 51.1 µM) | COc1ccc(C(C)=O)cc1COc1cccc2cccnc12 |
| 4.8 (≈ 11.1 µM) | CCn1cc(C(=O)OCC(=O)Nc2ccccc2OC(F)F)c(=O)c2ccc(C)nc21 |
| 7.6 (≈ 25.6 µM) | Cc1cc(C(=O)Nc2cc(Br)ccc2O)on1 |
| 6.4 (≈ 20.9 µM) | O=C(CSc1ccc(Cl)cc1)NC(=O)c1ccccc1 |
| 3.8 (≈ 11.5 µM) | CN(C)c1ccc(C(=O)OCc2cc(=O)n3ccsc3n2)cc1 |
| 7.3 (≈ 15.4 µM) | COc1ccc(N(C)S(=O)(=O)c2cccc(C(=O)OCC(=O)N3CC(C)CC(C)C3)c2)cc1 (configuration not stated) |
| 0.8 (≈ 3.32 µM) | Cc1ccc(NC(=O)Nc2cccc(C)n2)cc1 |
| 1.4 (≈ 4.16 µM) | NS(=O)(=O)c1ccc(NC(=O)/C=C/c2cccc(Cl)c2)cc1 |

Second part, the compound before the results:

| SMILES | solubility kinetic [µg/mL] |
| --- | --- |
| CCOC(=O)N1CCN(CCc2ccccc2)CC1 | 30.6 (≈ 117 µM) |
| O=C(O)C1CCCCC1C(=O)Nc1ccc2c(c1)OCO2 (configuration not stated) | > 43.7 |
| CN(C(=O)COC(=O)c1ccc(Cl)nc1)C1CCS(=O)(=O)C1 (configuration not stated) | > 52 |
| CC(C)(C)c1ccc(S(=O)(=O)N2CCNC(=O)C2)cc1 | 42 (≈ 142 µM) |
| N#C/C(=C\c1ccc(OCC(N)=O)cc1)S(=O)(=O)c1ccccc1 | 9.4 (≈ 27.5 µM) |
| Cc1cc(OCCN2CCOCC2)ccc1Cl | 25.9 (≈ 101 µM) |
| O=C(NC1CCCCCCC1)c1cccs1 | 22.5 (≈ 94.8 µM) |
| Cc1cc(Cl)c2ccc(Cl)cc2n1 | < 0.5 |
| CSc1ncccc1C(=O)N1CCN(C(=O)c2ccccc2)CC1 | > 51.2 |
| CCOc1cccc(CNc2ccc(O)cc2)c1OCc1ccc(Cl)cc1 | > 57.6 |
| O=C(COC(=O)c1ccc(S(=O)(=O)N2CCCC2)cc1)NCCc1ccc(F)cc1 | 6.2 (≈ 14.3 µM) |
| NC1=C([N+](=O)[O-])C(c2ccc3c(c2)OCO3)C2=C(CCCC2=O)O1 (configuration not stated) | 48.4 (≈ 147 µM) |
| N#C/C(=C\c1ccccc1)c1ccccn1 | 8.6 (≈ 41.7 µM) |
| Cc1cccc(OCCOC(=O)c2c(-c3ccccc3)noc2C)c1 | 1.1 (≈ 3.26 µM) |
| Cc1cc(C)c(C(N)=O)c(SCC(=O)c2cc(C)n(-c3cc(C)on3)c2C)n1 | 1.9 (≈ 4.77 µM) |
| CCC(C)NC(=O)CN1C(=O)NC2(CCOc3ccccc32)C1=O (configuration not stated) | > 49.7 |
| O=S(=O)(Nc1ccc(-c2cn3ccccc3n2)cc1)c1ccccc1 | 1.5 (≈ 4.29 µM) |
| c1ccc(Oc2cccc(Oc3ccccc3)n2)cc1 | < 0.6 |
| Cc1c(C(=O)N(C)Cc2ccc(OC(F)F)cc2)oc2ccccc12 | 6.5 (≈ 18.8 µM) |
| CC1(C)COC2(OC1)C(=O)Nc1ccccc12 | > 35 |
| COC(=O)NC(=C(Cl)Cl)P(=O)(c1ccccc1)c1ccccc1 | > 55.5 |
| CC1=CC(=C(C#N)C#N)C=C(C)N1CCN1CCNCC1 | > 42.5 |
| CN1CCN(/N=C/c2c[nH]c3ccccc23)CC1 | > 36.3 |
| CC(=O)Nc1ccc(S(=O)(=O)N2c3ccc(F)cc3CCC2C)cc1 (configuration not stated) | 45.9 (≈ 127 µM) |
| O=C(O)Cc1sc(NC2CCCCC2)nc1-c1ccc(Cl)cc1 | > 52.6 |

| SMILES | solubility kinetic [µg/mL] |
| --- | --- |
| COc1ccc(C(=O)NCC2CCCCC2)cc1S(=O)(=O)N1CCOCC1 | > 59.5 |
| Cc1ccc2oc(C(=O)N(Cc3ccccc3)C3CCS(=O)(=O)C3)c(C)c2c1 (configuration not stated) | 1.6 (≈ 4.03 µM) |
| CC(C)(C)c1ccc(C(=O)NCCN2CCOCC2)cc1 | > 43.6 |
| O=C1NC(=O)/C(=C\c2cn(Cc3ccccc3F)c3ccccc23)N1 | 0.8 (≈ 2.39 µM) |
| CC1=CC(C)(C)N(C(=O)Nc2ccccc2)c2ccccc21 | 7.8 (≈ 26.7 µM) |
| CC1CCN(CC(=O)Nc2nccs2)CC1 | > 35.9 |
| COc1ccc(CNC(=O)COC(=O)c2ccc(S(=O)(=O)NCc3ccco3)cc2)cc1 | 8 (≈ 17.4 µM) |
| Cc1cc([N+](=O)[O-])ccc1NCc1ccc2c(c1)OCCO2 | 10.8 (≈ 36 µM) |
| CSc1ccc(CN2CCc3c([nH]c4ccccc34)C2)cc1 | 2 (≈ 6.48 µM) |
| NC(=O)C1(C(N)=O)OC1c1ccc(Cl)c(Cl)c1 (configuration not stated) | > 41.3 |
| O=C(/C=C/c1ccc(Cl)cc1)NCCCn1ccnc1 | > 43.5 |
| Cc1ccc(-n2c(C)c([N+](=O)[O-])c3ccc(O)cc32)cc1 | 0.4 (≈ 1.42 µM) |
| COCCn1c(SCc2ccccc2)nc2c1c(=O)[nH]c(=O)n2C | > 52 |
| COc1cc(N(C)C)c([N+](=O)[O-])cc1C(=O)N1CCOCC1 | > 46.4 |
| O=C(Nc1cc(N2CCOCC2)ncn1)NC1(C(F)(F)F)Oc2ccc(Cl)cc2O1 (configuration not stated) | 65.5 (≈ 147 µM) |
| C=CCNc1nc(NCc2ccccc2)c(C#N)c2c1CN(C)CC2 | 3 (≈ 9 µM) |
| Cc1ccc(O)c(NC(=O)c2ccccc2-c2ccccc2C(=O)O)c1 | > 52.1 |
| CCCCCNC(=O)[C@@H]1CSC2c3ccccc3C(=O)N21 (some centres not stated) | 27.7 (≈ 91 µM) |
| O=C(NCCc1ccc(C(F)(F)F)cc1)c1ccc(Cl)nc1 | 6.6 (≈ 20.1 µM) |
| CCOc1ccc(OCc2ccc(C(=O)N3CCCCC3)o2)cc1 | > 49.4 |
| O=C(NCc1ccccc1)C1CCCN(c2cnccn2)C1 (configuration not stated) | > 44.5 |
| COc1cc2cc(C(=O)N(C)Cc3ccccc3)[nH]c2cc1OC | 0.7 (≈ 2.16 µM) |
| COc1cc(CN2CCCN(C)CC2)cc([N+](=O)[O-])c1O | 33.9 (≈ 115 µM) |
| C#CC(CC)(CC)NC(=O)/C=C/C(=O)O | 27.7 (≈ 132 µM) |
| CC(C#N)Sc1nnc(-c2ccccc2F)n1C1CC1 (configuration not stated) | > 43.3 |

| SMILES | solubility kinetic [µg/mL] |
| --- | --- |
| c1cncc(C2Nc3cccc4cccc(c34)N2)c1 | > 37.1 |
| CC(C(=O)NC1CCCCC1)N1C(=O)c2cccc3cccc1c23 (configuration not stated) | 3.5 (≈ 10.9 µM) |
| CC1CCCC(NC(=O)COC(=O)Cc2ccc(Cl)cc2)C1C (configuration not stated) | 27.3 (≈ 80.8 µM) |
| NS(=O)(=O)c1ccc(NC(=O)c2ccc(OCC3CCCO3)cc2)cc1 (configuration not stated) | 13 (≈ 34.5 µM) |
| O=C(NC1CCCC1)c1ccccc1OCc1ccccc1 | 15 (≈ 50.8 µM) |
| COc1ccc(S(=O)(=O)c2c[nH]c(=S)[nH]c2=O)cc1Cl | > 49.9 |
| COc1ccc(OC)c(Nc2nc(C)nc3c2oc2ccccc23)c1 | < 0.2 |
| CC(C)CN(C(=O)c1ccco1)c1nc2ccccc2s1 | 2.2 (≈ 7.32 µM) |
| COc1cccc(OCC(=O)NCC2CCCO2)c1 (configuration not stated) | > 39.8 |
| Cc1ccc(C(=O)Nc2ccc3c(c2)OCCO3)cc1S(=O)(=O)N1CCOCC1 | 41.6 (≈ 99.4 µM) |
| CC(C)CCc1noc(CN(CC2CCC2)CC2CCCO2)n1 (configuration not stated) | 11.9 (≈ 37 µM) |
| CCN(CC)c1ccc(NC(=O)c2ccc3c(c2)OCO3)c(C)c1 | 5.4 (≈ 16.5 µM) |
| Cc1ccc(S(=O)(=O)N2CCC(C(=O)NCC3CCCCC3)CC2)cc1 | 1.6 (≈ 4.23 µM) |
| O=[N+]([O-])c1cnccc1Nc1ccc(Cl)cc1 | 16.6 (≈ 66.5 µM) |
| CCOc1ccc(-c2cnc3n2CCCCC3)cc1 | 32 (≈ 125 µM) |
| O=C1CC(N2CCSCC2)C(=O)N1c1ccc(F)cc1 (configuration not stated) | > 44.2 |
| Cc1ccc([N+](=O)[O-])cc1S(=O)(=O)Nc1cccc(S(=O)(=O)NC2=NCCC2)c1 | > 65.8 |
| COc1cc(C(=O)N2C(=O)CCC2=O)cc(OC)c1OC | 35.4 (≈ 121 µM) |
| Cc1ccc([N+](=O)[O-])cc1NC(=O)Cc1ccc(F)cc1 | < 0.3 |
| CC(C(=O)N1CCc2ccccc21)N1CCN(Cc2ccccc2)CC1 (configuration not stated) | > 52.4 |
| COc1ccccc1NC(=O)C(=O)N1CCCC1 | 35.3 (≈ 142 µM) |
| Cc1c(NC(=O)[C@@H](NC(=O)c2ccc(Cl)c([N+](=O)[O-])c2)C(C)C)c(=O)n(-c2ccccc2)n1C | > 72.9 |
| Br.Cc1ccc(C2Cc3cc(O)c(O)cc3CN2)cc1 (configuration not stated) | 44.3 |
| O=C(NC1CC1)C1CCN(c2ncccn2)CC1 | > 36.9 |
